“And” between values parts separate entries of the source, which are not always exact repeats. Identical values can stand only once. Toxic doses and inconclusive results are not listed.

This test relates to L1210 leukemia ip in BDF1 mice, survival T/C. Put plainly: NCI In Vivo Anticancer Drug Screen. Data for tumor model L1210 Leukemia (intraperitoneal) in B6D2F1 (BDF1) mice. To be noted: endpoint: mean survival time, higher = longer survival. A digest of the protocol:
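Survival endpoint. Drug-treated group vs vehicle group, expressed as T divided by C. Tumor passaged by transplantation.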

Setting [1] is: dose: 200.0 mg/kg/injection, schedule: Q01DX001 (ip), vehicle: saline with Tween-80.
Where [2] appears, read: dose: 100.0 mg/kg/injection, schedule: Q04DX002 (ip), vehicle: Klucel (hydroxypropylcellulose) (HPC).
Setting [3] is: dose: 200.0 mg/kg/injection, schedule: Q04DX002 (ip), vehicle: Klucel (hydroxypropylcellulose) (HPC).
Setting [4] is: dose: 400.0 mg/kg/injection, schedule: Q04DX002 (ip), vehicle: Klucel (hydroxypropylcellulose) (HPC).
Setting [5] is: dose: 50.0 mg/kg/injection, schedule: Q01DX009 (ip), vehicle: Klucel (hydroxypropylcellulose) (HPC).
Where [6] appears, read: dose: 100.0 mg/kg/injection, schedule: Q01DX009 (ip), vehicle: Klucel (hydroxypropylcellulose) (HPC).
[7] abbreviates: dose: 200.0 mg/kg/injection, schedule: Q01DX009 (ip), vehicle: Klucel (hydroxypropylcellulose) (HPC).
Where [8] appears, read: dose: 400.0 mg/kg/injection, schedule: Q01DX009 (ip), vehicle: Klucel (hydroxypropylcellulose) (HPC).
Where [9] appears, read: dose: 100.0 mg/kg/injection, schedule: Q01DX009 (ip), vehicle: saline with Tween-80.
Where [10] appears, read: dose: 200.0 mg/kg/injection, schedule: Q01DX009 (ip), vehicle: saline with Tween-80.

Turning to `O=NN(CCCl)C(=O)NC1CCC(CCl)CC1` (stereo not given), the T/C runs as follows: (dose: 8.0 mg/kg/injection, schedule: Q01DX001 (ip), vehicle: saline with Tween-80) 114 % of control; (dose: 12.0 mg/kg/injection, schedule: Q01DX001 (ip), vehicle: saline with Tween-80) 181 % of control; (dose: 18.0 mg/kg/injection, schedule: Q01DX001 (ip), vehicle: saline with Tween-80) 183 % of control; (dose: 26.0 mg/kg/injection, schedule: Q01DX001 (ip), vehicle: saline with Tween-80) 320 % of control; (dose: 40.0 mg/kg/injection, schedule: Q01DX001 (ip), vehicle: saline with Tween-80) 310 % of control; (dose: 60.0 mg/kg/injection, schedule: Q01DX001 (ip), vehicle: saline with Tween-80) 372 % of control. Moreover, the T/C (dose: 90.0 mg/kg/injection, schedule: Q01DX001 (ip), vehicle: saline with Tween-80) was 297 % of control and the T/C under setting [1] is 187 % of control.
In the case of `COC(=N)c1ccc2c(c1)OCO2`, the T/C reads like this: (dose: 100.0 mg/kg/injection, schedule: Q04DX003 (ip), vehicle: saline) 94 % of control; (dose: 200.0 mg/kg/injection, schedule: Q04DX003 (ip), vehicle: saline) 94 % of control; (dose: 400.0 mg/kg/injection, schedule: Q04DX003 (ip), vehicle: saline) 100 % of control.
For `O=c1cc[nH]c2c([N+](=O)[O-])cccc12`, the T/C (dose: 100.0 mg/kg/injection, schedule: Q01DX001 (ip), vehicle: saline) was 99 % of control and the T/C (dose: 200.0 mg/kg/injection, schedule: Q01DX001 (ip), vehicle: saline) is 96 % of control.
Take `CCCCCC(=O)NNc1ccccc1`: the T/C is 104 % of control (dose: 50.0 mg/kg/injection, schedule: Q04DX002 (ip), vehicle: Klucel (hydroxypropylcellulose) (HPC)); 104 % of control under setting [2]; 111 % of control under setting [3]; 104 % of control under setting [4].
Regarding `O=C(NCCCCCCCCCCNC(=O)N1CC1)N1CC1`, the T/C was 94 % of control (dose: 0.12 mg/kg/injection, schedule: Q01DX Z (ip), vehicle: carboxymethylcellulose (CMC)); 96 % of control (dose: 0.25 mg/kg/injection, schedule: Q01DX Z (ip), vehicle: carboxymethylcellulose (CMC)); 115 % of control (dose: 0.4 mg/kg/injection, schedule: Q01DX Z (ip), vehicle: carboxymethylcellulose (CMC)); 108 % of control (dose: 0.5 mg/kg/injection, schedule: Q01DX Z (ip), vehicle: carboxymethylcellulose (CMC)); 110 % of control (dose: 0.5 mg/kg/injection, schedule: Q01DX Z (ip), vehicle: saline); 123 % of control (dose: 0.8 mg/kg/injection, schedule: Q01DX Z (ip), vehicle: carboxymethylcellulose (CMC)). Further, the T/C by setting is: (dose: 0.8 mg/kg/injection, schedule: Q01DX Z (ip), vehicle: saline) 113 % of control; (dose: 1.0 mg/kg/injection, schedule: Q01DX Z (ip), vehicle: carboxymethylcellulose (CMC)) 118 % of control; (dose: 1.2 mg/kg/injection, schedule: Q01DX Z (ip), vehicle: saline) 124 % of control; (dose: 1.8 mg/kg/injection, schedule: Q01DX Z (ip), vehicle: carboxymethylcellulose (CMC)) 155 % of control; (dose: 1.8 mg/kg/injection, schedule: Q01DX Z (ip), vehicle: saline) 118 % of control; (dose: 2.6 mg/kg/injection, schedule: Q01DX Z (ip), vehicle: carboxymethylcellulose (CMC)) 155 % of control and 160 % of control. Further, the T/C reads like this: (dose: 2.7 mg/kg/injection, schedule: Q01DX Z (ip), vehicle: saline) 168 % of control; (dose: 4.0 mg/kg/injection, schedule: Q01DX Z (ip), vehicle: carboxymethylcellulose (CMC)) 119 % of control; (dose: 5.0 mg/kg/injection, schedule: Q01DX001 (ip), vehicle: saline) 119 % of control; (dose: 6.0 mg/kg/injection, schedule: Q01DX Z (ip), vehicle: carboxymethylcellulose (CMC)) 96 % of control; (dose: 6.0 mg/kg/injection, schedule: Q01DX Z (ip), vehicle: saline) 112 % of control.
In the case of `CC[n+]1c(C)sc2cc3c(cc21)OCO3`, the T/C by setting is: (dose: 25.0 mg/kg/injection, schedule: Q04DX003 (ip), vehicle: Klucel (hydroxypropylcellulose) (HPC)) 102 % of control; under setting [5], 103 % of control; (dose: 50.0 mg/kg/injection, schedule: Q04DX003 (ip), vehicle: Klucel (hydroxypropylcellulose) (HPC)) 107 % of control; under setting [6], 96 % of control; (dose: 100.0 mg/kg/injection, schedule: Q04DX003 (ip), vehicle: Klucel (hydroxypropylcellulose) (HPC)) 105 % of control and 109 % of control.
For `CC(C)=CCC(C#N)(CCN1CCCC1)c1cccc2ccccc12` (stereo not given), the T/C (dose: 12.5 mg/kg/injection, schedule: Q01DX009 (ip), vehicle: Klucel (hydroxypropylcellulose) (HPC)) was 100 % of control; the T/C (dose: 25.0 mg/kg/injection, schedule: Q01DX009 (ip), vehicle: Klucel (hydroxypropylcellulose) (HPC)) is 118 % of control; the T/C under setting [5] is 105 % of control.
Turning to `O=C1OC(/C=C\c2ccccc2)=NC/1=C\c1cc(Cl)cc(Cl)c1O`, the T/C under setting [2] was 108 % of control, the T/C under setting [3] is 112 % of control and the T/C under setting [4] is 108 % of control.
Turning to `N#C/C(=C\c1ccc(Cl)cc1)c1cccc2ccccc12`, the T/C is, setting by setting: under setting [6], 92 % of control; under setting [7], 92 % of control; under setting [8], 90 % of control.
On to `c1ccc(C2=Nc3ccccc3N=C3CCCC32)cc1` (stereo not given), for which the T/C (dose: 100.0 mg/kg/injection, schedule: Q01DX001 (ip), vehicle: carboxymethylcellulose (CMC)) was 103 % of control; the T/C (dose: 200.0 mg/kg/injection, schedule: Q01DX001 (ip), vehicle: carboxymethylcellulose (CMC)) is 100 % of control; the T/C (dose: 400.0 mg/kg/injection, schedule: Q01DX001 (ip), vehicle: carboxymethylcellulose (CMC)) was 97 % of control.
On to `Cc1cc(/C=N/NC(=O)c2ccccc2NC(=O)c2ccccc2Cl)ccc1O`, for which the T/C runs as follows: under setting [6], 88 % of control; under setting [7], 92 % of control; under setting [8], 86 % of control.
In the case of `CC(C)(C)SCCO`, the T/C runs as follows: (dose: 100.0 mg/kg/injection, schedule: Q04DX002 (ip), vehicle: saline) 105 % of control; (dose: 200.0 mg/kg/injection, schedule: Q04DX002 (ip), vehicle: saline) 99 % of control; (dose: 400.0 mg/kg/injection, schedule: Q04DX002 (ip), vehicle: saline) 96 % of control.
Consider `O=C1c2ccccc2C(=O)N1c1cc(O)cc(O)c1`, for which the T/C (dose: 100.0 mg/kg/injection, schedule: Q01DX009 (ip), vehicle: water) is 95 % of control; the T/C (dose: 100.0 mg/kg/injection, schedule: Q04DX003 (ip), vehicle: water) was 96 % of control; the T/C (dose: 200.0 mg/kg/injection, schedule: Q01DX009 (ip), vehicle: water) was 95 % of control; the T/C (dose: 200.0 mg/kg/injection, schedule: Q04DX003 (ip), vehicle: water) was 94 % of control; the T/C (dose: 400.0 mg/kg/injection, schedule: Q01DX009 (ip), vehicle: water) was 101 % of control; the T/C (dose: 400.0 mg/kg/injection, schedule: Q04DX003 (ip), vehicle: water) is 96 % of control.
Take `CC1C=CC(C(=O)Nc2ccc(Cl)c(Cl)c2)N1C` (stereo not given): the T/C reads like this: (dose: 50.0 mg/kg/injection, schedule: Q01DX009 (ip), vehicle: saline with Tween-80) 94 % of control; under setting [9], 91 % of control; under setting [10], 93 % of control.
Consider `Nc1cc(S(=O)(=O)c2ccc(O)c(N)c2)ccc1O`, for which the T/C by setting is: under setting [9], 105 % of control; (dose: 100.0 mg/kg/injection, schedule: Q04DX003 (ip), vehicle: saline with Tween-80) 103 % of control; under setting [10], 107 % of control; (dose: 200.0 mg/kg/injection, schedule: Q04DX003 (ip), vehicle: saline with Tween-80) 104 % of control; (dose: 400.0 mg/kg/injection, schedule: Q01DX009 (ip), vehicle: saline with Tween-80) 109 % of control; (dose: 400.0 mg/kg/injection, schedule: Q04DX003 (ip), vehicle: saline with Tween-80) 97 % of control.
Take `O=C(O)Cn1[nH]c(=O)ccc1=O`: the T/C is 103 % of control (dose: 100.0 mg/kg/injection, schedule: Q01DX001 (ip), vehicle: saline with Tween-80); 103 % of control under setting [1]; 102 % of control (dose: 400.0 mg/kg/injection, schedule: Q01DX001 (ip), vehicle: saline with Tween-80).
